# According to US5559103A, “Bivalent sialyl X saccharides” (Cytel Corporation, priority 1994, dated 1996):
# Values joined by “and” are separate entries in the source; they are usually repeats but may differ in a detail not shown here. Equal values may be shown once.
# Legend:
# [1] = molecular target: T1, recombinant soluble E-selectin (Homo sapiens, UniProt P16581); experiment: Recombinant soluble E-selectin/HL-60 cell adhesion assay; type: cell-based; conditions: for Ratio (50 percent binding value for the standard Compound Z divided by the 50 percent binding value for the assayed sample) / IC50 value ratio of SLe^x to that of the compound: E-Selectin Cell Adhesion Assay, HL-60 cells; for Ratio (50 percent binding value for the standard Compound Z divided by the 50 percent binding value for the assayed sample): relative to Compound Z; for IC50 value ratio of SLe^x to that of the compound: relative to SLe^x (Table 1 value divided by 0.76); for inhibition of HL-60 cell adhesion to recombinant soluble E-selectin-coated plates, activity order: FIG. 1, range of inhibitor concentrations (mM)
# T1 construct: The 3'-amplimer inserted the termination codon TGA after amino acid number 527 of the mature E-selectin; made in house
# T1 sequence (P16581 22-548 limits assumed): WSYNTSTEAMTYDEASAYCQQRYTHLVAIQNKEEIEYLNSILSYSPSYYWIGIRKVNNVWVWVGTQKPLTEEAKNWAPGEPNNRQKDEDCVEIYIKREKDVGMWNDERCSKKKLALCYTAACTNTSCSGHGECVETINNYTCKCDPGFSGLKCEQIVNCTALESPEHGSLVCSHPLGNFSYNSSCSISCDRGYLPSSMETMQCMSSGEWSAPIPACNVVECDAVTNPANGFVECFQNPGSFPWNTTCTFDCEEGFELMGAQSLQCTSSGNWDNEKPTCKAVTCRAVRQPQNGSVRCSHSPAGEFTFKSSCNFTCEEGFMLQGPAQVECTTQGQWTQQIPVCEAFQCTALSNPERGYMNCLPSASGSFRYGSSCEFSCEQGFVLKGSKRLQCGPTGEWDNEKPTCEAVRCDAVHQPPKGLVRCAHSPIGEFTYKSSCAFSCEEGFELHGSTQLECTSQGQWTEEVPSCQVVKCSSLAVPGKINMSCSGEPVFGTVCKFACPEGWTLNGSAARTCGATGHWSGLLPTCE
# Description: A modified recombinant soluble E-selectin/HL-60 cell adhesion assay was developed to provide a simple and highly reproducible method with which to compare the E-selectin blocking potential of a bivalent SLe^x saccharide compound. In this assay, recombinant soluble E-selectin (rELAM) is bound to the plastic surface of a 96 well ELISA plate. Dilutions of bivalent SLe^x saccharide compounds to be assayed are added to the wells followed by HL-60 cells which bear the ligand for E-selectin. The cells are allowed to adhere to the E-selectin coated assay plate and the nonadherent cells are removed by washing the plate with an automated plate washer. Bound cells are quantitated by measuring the cellular enzyme myeloperoxidase. The molar concentration of assayed bivalent SLe^x saccharide required to achieve 50 percent inhibition of control adhesion such as that inhibited by free SLe^x or an analog is used to compare the contemplated analogs for potency.
# rELAM (recombinant modified ELAM-1) affinity purified, prepared as follows below. Each batch of rELAM was tested functionally to determine the appropriate concentration for use in the assay. A batch was titrated over a range of 1-5 μg/mL using inhibition by Compound Z (described hereinafter) as the standard. Small aliquots were then prepared, quick frozen in a dry-ice acetone bath and stored at -70° C. Each aliquot was opened only one time and then discarded or saved for use in other types of assays.
# The soluble form of E-selectin (rELAM or sol-E-selectin) used here was engineered by deleting the transmembrane domain from the cDNA. This recombinant cDNA was cloned into a mammalian expression vector pCDNA1 [a derivative of pCDM8; Seed, Nature, 329:840 (1987)] that contains the chimeric cytomegalovirus/human immunodeficiency virus promoter. When introduced into the adenovirus-transformed human kidney cell line 293, expression of the CMV promoter is efficiently activated by the E1 gene products by a mechanism that has not been fully delineated. The pCDNA1-sol-E-selectin construction was introduced, via calcium phosphate-mediated gene transfer, into 293 cells and a stable cell line expressing high levels of sol-E-selectin was generated. The sol-E-selectinproduced by these cells was purified by immunoaffinity chromatograph on an anti-E-selectin monoclonal antibody Protein-A Sepharose column.
# A 1.67 Kbp DNA fragment encoding a truncated structural gene for E-selectin was isolated by polymerase chain reaction (PCR) amplification of cDNA derived from messenger RNA that was isolated from IL-1-activated human endothelial cells. The 5'-amplimer inserted a unique ClaI restriction site 28 nucleotides upstream from the initiation codon of the E-selectin structural gene. The 3'-amplimer inserted the termination codon TGA after amino acid number 527 of the mature E-selectin, followed by a unique XhoI restriction site. The carboxy-terminus of sol-E-selectin is located at the carboxy terminus of the sixth consensus repeat element, thereby deleting the transmembrane domain. The 1.67 Kbp PCR fragment was codigested with ClaI and XhoI restriction endonucleases and sub-cloned into the ClaI and XhoI restriction sites of the cloning vector pBluescript II, providing vector pBS11-sol-E-selectin. Expressed soluble-E-selectin is 527 amino acid residues in length and contains 11 potential N-glycosylation sites.
# 1. Assays were carried out in 96-well Immunolan 2 plates (Dynatech Laboratories, Inc., Chantilly, Va. catalog #011-0103655). The rELAM (sol-E-selectin) was diluted to the appropriate concentration for the current batch. For these assays, rELAM was used at 2.5 or 3.0 μg/mL in DPBS; with well coating being carried out at room temperature. Using a multichannel pipette, 50μl per well were added to the following wells of one ELISA plate: E1-E6, F1-F6, and G1-G6. DPBS (50μl ) was added to wells H1, H2, and H3 for use as controls. This plate is referred to as the pretest plate. […]
# lung injury in rats = conditions: Mulligan et al., cited from earlier work
# E-selectin = conditions: monomeric; Nelson et al.; cited from earlier work
# P-selectin = conditions: monomeric; Nelson et al.; cited from earlier work
# [2] = infusion, cobra venom-infused rats
Compound,Ratio (50 percent binding value for the standard Compound Z divided by the 50 percent binding value for the assayed sample) [1],IC50 value ratio of SLe^x to that of the compound [1],"inhibition of HL-60 cell adhesion to recombinant soluble E-selectin-coated plates, activity order [1]",accumulation of neutrophils (lung injury in rats; [2]),lung injury (lung injury in rats; [2]),"IC50 (lung injury in rats; protection against lung injury in rats, read-out: in vivo IC50 value)",binding to E-selectin (E-selectin),binding to P-selectin (P-selectin)
"COC(=O)CCCCCO[C@@H]1O[C@H](CO[C@@H]2O[C@H](CO)[C@@H](O[C@@H]3O[C@H](CO)[C@H](O)[C@H](O[C@]4(C(=O)O)C[C@H](O)[C@@H](NC(C)=O)[C@H]([C@H](O)[C@H](O)CO)O4)[C@H]3O)[C@H](O[C@@H]3O[C@@H](C)[C@@H](O)[C@@H](O)[C@@H]3O)[C@H]2NC(C)=O)[C@H](O)[C@H](O)[C@H]1O[C@@H]1O[C@H](CO)[C@@H](O[C@@H]2O[C@H](CO)[C@H](O)[C@H](O[C@]3(C(=O)O)C[C@H](O)[C@@H](NC(C)=O)[C@H]([C@H](O)[C@H](O)CO)O3)[C@H]2O)[C@H](O[C@@H]2O[C@@H](C)[C@@H](O)[C@@H](O)[C@@H]2O)[C@H]1NC(C)=O [Compound 20, 5-Methoxycarbonylpentyl 2,6-bis-O-[(5-acetamido-3,5-dideoxy-α-D-glycero-D-galacto-2-nonulo-pyranosylonic acid)-yl-(2→3)-β-D-galactopyranosyl-(1→4)-(α-L-fucopyranosyl-(1→3))-2-acetamido-2-deoxy-β-D-glucopyranosyl]-β-D-galactopyranoside]",2.67,about 3.5,–,–,–,–,–,–
"COC(=O)CCCCCO[C@@H]1O[C@H](CO[C@@H]2O[C@H](CO)[C@@H](O[C@@H]3O[C@H](CO)[C@H](O)[C@H](O[C@]4(C(=O)O)C[C@H](O)[C@@H](NC(C)=O)[C@H]([C@H](O)[C@H](O)CO)O4)[C@H]3O)[C@H](O[C@@H]3O[C@@H](C)[C@@H](O)[C@@H](O)[C@@H]3O)[C@H]2NC(C)=O)[C@H](O[C@@H]2O[C@H](CO)[C@@H](O[C@@H]3O[C@H](CO)[C@H](O)[C@H](O[C@]4(C(=O)O)C[C@H](O)[C@@H](NC(C)=O)[C@H]([C@H](O)[C@H](O)CO)O4)[C@H]3O)[C@H](O[C@@H]3O[C@@H](C)[C@@H](O)[C@@H](O)[C@@H]3O)[C@H]2NC(C)=O)[C@H](O)[C@H]1O [Compound 21, 5-Methoxycarbonylpentyl 4,6-bis-O-[(5-acetamido-3,5-dideoxy-α-D-glycero-D-galacto-2-nonulo-pyranosylonic acid)-yl-(2→3)-β-D-galactopyranosyl-(1→4)-(α-L-fucopyranosyl-(1→3))-2-acetamido-2-deoxy-β-D-glucopyranosyl]-β-D-galactopyranoside]",1.67,–,more active than Compound 20,–,–,–,–,–
"CC(=O)N[C@H]1[C@H]([C@H](O)[C@H](O)CO)O[C@@](O[C@H]2[C@@H](O)[C@@H](CO)O[C@@H](O[C@H]3[C@H](O[C@@H]4O[C@@H](C)[C@@H](O)[C@@H](O)[C@@H]4O)[C@@H](NC(C)=O)C(O)O[C@@H]3CO)[C@@H]2O)(C(=O)O)C[C@@H]1O (stereo partly shown) [SLe^x, NeuAcα2→3βGalβ1→4(Fucα1→3)GlcNAc]",0.76,–,–,reduced accumulation of neutrophils,reduced lung injury,~1 µM,binds weakly,binds weakly
"CCO[C@@H]1O[C@H](CO[C@@H]2O[C@H](CO)[C@@H](O[C@@H]3O[C@H](CO)[C@H](O)[C@H](O[C@]4(C(=O)O)C[C@H](O)[C@@H](NC(C)=O)[C@H]([C@H](O)[C@H](O)CO)O4)[C@H]3O)[C@H](O[C@@H]3O[C@@H](C)[C@@H](O)[C@@H](O)[C@@H]3O)[C@H]2NC(C)=O)[C@H](O)[C@H](O[C@@H]2O[C@H](CO)[C@@H](O[C@@H]3O[C@H](CO)[C@H](O)[C@H](O[C@]4(C(=O)O)C[C@H](O)[C@@H](NC(C)=O)[C@H]([C@H](O)[C@H](O)CO)O4)[C@H]3O)[C@H](O[C@@H]3O[C@@H](C)[C@@H](O)[C@@H](O)[C@@H]3O)[C@H]2NC(C)=O)[C@H]1O [Compound 1, Ethyl 3,6-bis-O-[(ammonium 5-acetamido-3,5-dideoxy-α-D-glycero-D-galacto-2-nonulo-pyranosylonate)-(2→3)-β-D-galactopyranosyl-(1→4)-(α-L-fucopyranosyl-(1→3))-2-acetamido-2-deoxy-β-D-glucopyranosyl]-β-D-galactopyranoside]",3.8 and 2.67,3.5-5,the most active,–,–,–,–,–
